Test results from patent publication US20040092528A1, “Agent for modulating excitatory synaptic transmission comprising a compound having alpha7 nicotinic acetylcholine receptor activation property” (priority 2000, published 2004).
Where two headings read alike, the source gives them in different places.

Experiments:
rats = rats in vivo; cited from earlier work
guinea-pig hippocampus = conditions: cited from earlier work
[1] = test system: CA1 neurones in rat hippocampal slices; assay: EPSP recording (amplitude, slope, quantal content) in CA1 neurones in rat hippocampal slices; assay type: cell-based; conditions: for increase in EPSP slope: dose-response series
CA1 neurones [2] = assay: Membrane potential and input resistance of CA1 neurones; assay type: cell-based, rat; conditions: FK960 94 nM and 100 nM, n=11, average exposure 30 mins
rat hippocampus = conditions: cited from earlier work
CA1 neurones [3] = assay: Excitatory post-synaptic current (EPSC) in CA1 neurones voltage clamped at −70 mV; assay type: cell-based, rat
[4] = target: α7 nicotinic ACh receptor (Rattus norvegicus, UniProt Q05941); assay: Effect of FK960 on EPSP amplitude in the presence of α7 nicotinic ACh receptor antagonists; assay type: cell-based
CA1 neurones [5] = assay: GABAergic inhibitory post-synaptic current (IPSC) in voltage clamped CA1 neurones; assay type: cell-based, rat
cholinergic receptors = assay: Displacement of radiolabelled ligands with high affinity to cholinergic receptors; assay type: binding; conditions: a number of assays
[6] = one CA1 neurone (FIG. 1), 100 nM FK960

Chain of α7 nicotinic ACh receptor (Q05941 23-502): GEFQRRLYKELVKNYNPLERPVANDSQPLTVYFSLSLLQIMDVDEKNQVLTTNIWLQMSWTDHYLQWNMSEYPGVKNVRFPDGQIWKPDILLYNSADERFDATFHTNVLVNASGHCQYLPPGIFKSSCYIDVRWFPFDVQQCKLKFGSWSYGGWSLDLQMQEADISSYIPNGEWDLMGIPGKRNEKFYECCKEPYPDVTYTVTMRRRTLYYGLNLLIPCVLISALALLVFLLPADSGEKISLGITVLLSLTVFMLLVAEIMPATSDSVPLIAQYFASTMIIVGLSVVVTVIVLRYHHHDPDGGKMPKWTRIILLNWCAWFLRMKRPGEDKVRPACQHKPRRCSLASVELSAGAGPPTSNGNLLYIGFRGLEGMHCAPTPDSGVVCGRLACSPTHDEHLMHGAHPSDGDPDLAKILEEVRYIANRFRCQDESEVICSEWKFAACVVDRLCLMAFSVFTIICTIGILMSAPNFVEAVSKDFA

**Q.** With `CC(=O)N1CCN(NC(=O)c2ccc(F)cc2)CC1` [FK960, N-(4-acetyl-1-piperazinyl)-p-fluorobenzamide monohydrate] as the compound, how does the “effect on scopolamine-induced cognitive deficits” value (rats) read?
**A.** reverse scopolamine-induced cognitive deficits

**Q.** What about the “effect on magnitude of long-term potentiation” value (guinea-pig hippocampus; guinea pig hippocampus, 100 nM FK960) of the same compound?
**A.** significantly increased the magnitude of long-term potentiation

**Q.** And the “effect on magnitude of long-term potentiation” value (guinea-pig hippocampus; guinea-pig hippocampus in vitro)?
**A.** increase the magnitude of long-term potentiation

**Q.** And the “dose-response relationship (shape)” value ([1]; 0, 50, 100, 200 nM FK960, EPSP slope)?
**A.** bell-shaped

**Q.** What about the “increase in mean EPSP amplitude” value ([1]; 100 nM FK960, 21 min, n=9 neurones) of the same compound?
**A.** 65%

**Q.** And the “mean EPSP amplitude” value ([1]; 100 nM FK960, 21 min, n=9 neurones, 2.3 mV before)?
**A.** 3.8 mV

**Q.** And the “mean increase in 1/CV^2 (quantal content)” value ([1]; 100 nM FK960, 21 minutes, pooled neurones)?
**A.** 53%

**Q.** And the “1/CV^2 (quantal content), mean” value ([1]; 100 nM FK960, 21 minutes, 6.4 before)?
**A.** 9.8

**Q.** And the “increase in mean EPSP slope” value ([1]; 100 nM FK960, after 21 mins, n=9)?
**A.** 51%

**Q.** And the “mean EPSP slope” value ([1]; 100 nM FK960, after 21 mins, n=9, 357.8 mV/s before)?
**A.** 540.5 mV/s

**Q.** What about the “frequency of spontaneous EPSPs” value ([1]; 4 neurones, 20-30 min after exposure to 100 nM FK960, 0.65 before) of the same compound?
**A.** 0.54 spontaneous EPSP/sec

**Q.** And the mean quantum size ([1]; after 21 minutes exposure to 100 nM FK960, 7 neurones, 0.39 mV before)?
**A.** 0.42 mV

**Q.** What about the “increase in EPSP amplitude” value ([1]; after 27 mins in FK960, n=7) of the same compound?
**A.** 64%

**Q.** What about the EPSP amplitude ([1]; after 27 mins in FK960, n=7, 2.2 mV before) of the same compound?
**A.** 3.6 mV

**Q.** And the “increase in EPSP slope” value ([1]; 50 nM FK960)?
**A.** smaller and not significant

**Q.** What about the “increase in EPSP slope” value ([1]; 100 nM FK960, n=5, after 21 mins, control aCSF 11%) of the same compound?
**A.** 55%

**Q.** And the “increase in EPSP slope” value ([1]; 200 nM FK960)?
**A.** smaller and not significant

**Q.** And the “increase in mean EPSP amplitude” value [1, 6]?
**A.** 123%

**Q.** What about the “rise in quantal content” value [1, 6] of the same compound?
**A.** 109%

**Q.** What about the “mean EPSP amplitude” value ([1]; one CA1 neurone (FIG. 1), 100 nM FK960, n=287 EPSPs, 2.6 mV in control aCSF) of the same compound?
**A.** 5.8 mV

**Q.** What about the “increase in slope of the rising phase of the averaged EPSP” value ([1]; one CA1 neurone (FIG. 1), 21 min 40 sec after 100 nM FK960) of the same compound?
**A.** 127%

**Q.** What about the “slope of the rising phase of the averaged EPSP” value ([1]; one CA1 neurone (FIG. 1), 21 min 40 sec after 100 nM FK960, 326.7 mV/s before) of the same compound?
**A.** 742.8 mV/s

**Q.** And the “quantal content (1/CV^2)” value ([1]; one CA1 neurone (FIG. 1), after 20 mins in 100 nM FK960, 6.4 before)?
**A.** 13.4

**Q.** And the “mean EPSP amplitude” value ([1]; one CA1 neurone (FIG. 1), after 21 min in 100 nM FK960, 2.6 mV (n=50) before)?
**A.** 5.5 mV

**Q.** And the input resistance (CA1 neurones [2]; 175.3 MΩ in control aCSF)?
**A.** 164.2 MΩ

**Q.** And the resting membrane potential (CA1 neurones [2]; −60.3 mV in control aCSF)?
**A.** −59.4 mV

**Q.** And the “effect on amplitude of the un-potentiated population spike” value (rat hippocampus)?
**A.** increases the amplitude of the un-potentiated population spike

**Q.** And the “EPSC decay time constant τEPSC” value (CA1 neurones [3]; 4 experiments, 20-22 mins exposure to 100 nM FK960, 22.2 ms before)?
**A.** 28.4 ms

**Q.** What about the EPSC amplitude (CA1 neurones [3]; 4 experiments, 20-22 mins exposure to 100 nM FK960, 98.3 pA before) of the same compound?
**A.** 158.3 pA

**Q.** And the EPSC amplitude (CA1 neurones [3]; one neurone (FIG. 5C), FK960, 103 pA before)?
**A.** 175 pA

**Q.** What about the “increase in mean EPSP amplitude” value [4] of the same compound?
**A.** 11%

**Q.** What about the “mean EPSP amplitude” value [4] of the same compound?
**A.** 2.0 mV

**Q.** What about the “mean EPSP amplitude” value ([4]; 21 minutes exposure to 100 nM FK960 in 100 nM MLA, 5 CA1 neurones, unchanged) of the same compound?
**A.** 2.6 mV

**Q.** What about the “rise in EPSP amplitude” value ([4]; FK960 in 10 nM MLA, 21 minutes, n=3, from 3.1 mV) of the same compound?
**A.** 10%

**Q.** And the “effect on the IPSC” value (CA1 neurones [5]; 100 nM FK960)?
**A.** no significant effect

**Q.** What about the “Mean IPSC amplitude” value (CA1 neurones [5]; 3 experiments, FK960, 48 pA in control aCSF) of the same compound?
**A.** 46 pA

**Q.** What about the IPSC peak amplitude (CA1 neurones [5]; one CA1 neurone (FIG. 4), 21 minutes in FK960, 39 pA in control aCSF) of the same compound?
**A.** 38 pA

**Q.** What about the “displacement of radiolabelled ligands with high affinity to cholinergic receptors” value (cholinergic receptors) of the same compound?
**A.** failed to displace

**Q.** Which “EPSC decay time constant τEPSC” value (CA1 neurones [3]; 200 μM FR212436 for 20 min, n=3, 15.0 ms before) does the source give for `O=C(c1ccc2nccnc2c1)N1CCCCC1` [FR212436, 1-(quinoxalin-6-ylcarbonyl)piperidine] here?
**A.** 22.4 ms

**Q.** And the EPSC amplitude (CA1 neurones [3]; 200 μM FR212436 for 20 min, n=3, 84 pA before)?
**A.** 181.3 pA

**Q.** What about the “EPSC decay time constant τEPSC” value (CA1 neurones [3]; 2 mM FR212436 for 5-10 min, n=3, 21.5 ms before) of the same compound?
**A.** 46.7 ms

**Q.** And the EPSC amplitude (CA1 neurones [3]; 2 mM FR212436 for 5-10 min, n=3, 73.7 pA before)?
**A.** 239.7 pA

**Q.** What about the EPSC amplitude (CA1 neurones [3]; one neurone (FIG. 5A), FR212436 200 μM, 42 pA before) of the same compound?
**A.** 95 pA

**Q.** What about the EPSC amplitude (CA1 neurones [3]; one neurone (FIG. 5B), FR212436 2 mM, 87 pA before) of the same compound?
**A.** 247 pA

**Q.** What does the source list for α-bungarotoxin [reference compound]?
**A.** effect of antagonist on the action of FK960 on the EPSP [4]: attenuated; mean EPSP amplitude [4]: 1.6 mV
